Data as given in patent US20240025884A1 (Dong-A ST Co., Ltd., priority 2022, published 2024).

Molecular target: GCN2 (Homo sapiens (Human), UniProt Q9P2K8)
Assay: GCN2 Biochemical Assay (TR-FRET, GFP-eIF2S1 substrate phosphorylation)
Conditions: read-out: IC50 (GCN2 Inhibitory Activity)
Outline: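 In-house GCN2 (1.6 nM 2× stock) phosphorylates GFP-eIF2S1 (50 nM 2× stock) with ATP (0.2 mM 2× stock) and tRNA, pH 7.5, 70 min at room temperature; 10-point 3.16-fold compound series. TR-FRET detection with Tb-anti-phospho antibody, 2–3 h, Ex 340/Em 490/520 nm; artifact plate spiked with phospho-substrate.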

Chain of GCN2 (Q9P2K8 whole entry): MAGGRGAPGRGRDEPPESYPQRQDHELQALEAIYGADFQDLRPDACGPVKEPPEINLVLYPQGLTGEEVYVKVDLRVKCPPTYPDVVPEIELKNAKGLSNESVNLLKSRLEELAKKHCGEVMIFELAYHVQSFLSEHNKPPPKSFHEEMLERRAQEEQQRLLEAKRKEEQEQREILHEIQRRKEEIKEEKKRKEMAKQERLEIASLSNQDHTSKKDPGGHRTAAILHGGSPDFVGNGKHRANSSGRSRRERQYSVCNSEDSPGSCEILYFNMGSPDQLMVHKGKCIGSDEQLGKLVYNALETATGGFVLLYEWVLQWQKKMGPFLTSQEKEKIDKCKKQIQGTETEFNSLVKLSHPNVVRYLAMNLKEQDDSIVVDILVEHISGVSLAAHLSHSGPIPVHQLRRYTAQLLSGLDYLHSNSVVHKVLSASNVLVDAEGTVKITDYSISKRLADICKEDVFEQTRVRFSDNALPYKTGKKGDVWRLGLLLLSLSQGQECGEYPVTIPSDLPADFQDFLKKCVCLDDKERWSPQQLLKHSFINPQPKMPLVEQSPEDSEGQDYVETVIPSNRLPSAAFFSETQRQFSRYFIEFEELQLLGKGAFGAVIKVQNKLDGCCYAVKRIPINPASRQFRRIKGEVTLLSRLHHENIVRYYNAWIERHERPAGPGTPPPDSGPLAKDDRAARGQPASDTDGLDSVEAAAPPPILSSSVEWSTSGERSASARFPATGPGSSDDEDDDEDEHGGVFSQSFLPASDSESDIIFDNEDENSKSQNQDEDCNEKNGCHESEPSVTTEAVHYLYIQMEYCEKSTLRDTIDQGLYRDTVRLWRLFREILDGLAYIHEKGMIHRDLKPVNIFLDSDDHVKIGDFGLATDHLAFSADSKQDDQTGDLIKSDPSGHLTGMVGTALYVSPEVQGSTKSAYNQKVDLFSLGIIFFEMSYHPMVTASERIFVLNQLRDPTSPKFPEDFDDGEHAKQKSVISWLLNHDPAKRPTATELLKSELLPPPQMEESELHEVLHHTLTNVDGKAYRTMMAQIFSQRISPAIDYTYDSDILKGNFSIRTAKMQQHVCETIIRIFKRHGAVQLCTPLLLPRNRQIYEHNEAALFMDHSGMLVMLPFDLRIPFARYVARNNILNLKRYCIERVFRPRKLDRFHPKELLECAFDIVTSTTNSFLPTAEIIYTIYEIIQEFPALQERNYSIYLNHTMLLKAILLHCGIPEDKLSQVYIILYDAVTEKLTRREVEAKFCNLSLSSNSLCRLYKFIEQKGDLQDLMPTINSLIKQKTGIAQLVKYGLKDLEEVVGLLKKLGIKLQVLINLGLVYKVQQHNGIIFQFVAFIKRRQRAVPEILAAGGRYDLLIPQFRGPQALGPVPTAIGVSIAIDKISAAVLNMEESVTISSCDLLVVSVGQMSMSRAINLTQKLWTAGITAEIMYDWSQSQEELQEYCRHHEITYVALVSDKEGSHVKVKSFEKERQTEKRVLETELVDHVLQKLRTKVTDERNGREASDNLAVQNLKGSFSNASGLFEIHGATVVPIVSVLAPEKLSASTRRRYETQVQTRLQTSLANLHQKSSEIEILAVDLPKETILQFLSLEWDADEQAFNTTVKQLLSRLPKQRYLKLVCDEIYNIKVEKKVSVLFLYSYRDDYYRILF

IC50	SMILES
0.1 to 1 µM	Cc1cnc(Nc2cc(C)n(C)n2)nc1-c1c[nH]c2c(N3Cc4c(cccc4-c4ccccc4C(F)(F)F)C3=O)cccc12 [Example 434, 2-(3-(2-((1,5-dimethyl-1H-pyrazol-3-yl)amino)-5-methylpyrimidin-4-yl)-1H-indol-7-yl)-4-(2-(trifluoromethyl)phenyl)isoindolin-1-one]
< 0.01 µM	COc1ncccc1-c1cccc2c1CN(c1cccc3c(-c4nc(Nc5cc(C)n(C)n5)ncc4C)c[nH]c13)C2=O [Example 435, 2-(3-(2-((1,5-dimethyl-1H-pyrazol-3-yl)amino)-5-methylpyrimidin-4-yl)-1H-indol-7-yl)-4-(2-methoxypyridin-3-yl)isoindolin-1-one]
0.01 to 0.1 µM	Cc1cnc(Nc2cc(C)n(C)n2)nc1-c1c[nH]c2c(N3Cc4c(cccc4-c4ccc(N(C)C)cc4)C3=O)cccc12 [Example 436, 2-(3-(2-((1,5-dimethyl-1H-pyrazol-3-yl)amino)-5-methylpyrimidin-4-yl)-1H-indol-7-yl)-4-(4-(dimethylamino)phenyl)isoindolin-1-one]
< 0.01 µM	Cc1cnc(Nc2cc(C)n(C)n2)nc1-c1c[nH]c2c(N3Cc4c(cccc4-c4ccccc4CO)C3=O)cccc12 [Example 437, 2-(3-(2-((1,5-dimethyl-1H-pyrazol-3-yl)amino)-5-methylpyrimidin-4-yl)-1H-indol-7-yl)-4-(2-(hydroxymethyl)phenyl)isoindolin-1-one]
0.01 to 0.1 µM	COc1ccccc1-c1cccc2c1CN(c1cccc3c(-c4nc(Nc5cc(C)n(C)n5)ncc4C)c[nH]c13)C2=O [Example 438, 2-(3-(2-((1,5-dimethyl-1H-pyrazol-3-yl)amino)-5-methylpyrimidin-4-yl)-1H-indol-7-yl)-4-(2-methoxyphenyl)isoindolin-1-one]
> 1 µM	Cc1cnc(Nc2cc(C)n(C)n2)nc1-c1c[nH]c2c(N3Cc4c(cccc4-c4ccccc4-c4ccccc4)C3=O)cccc12 [Example 439, 4-([1,1′-biphenyl]-2-yl)-2-(3-(2-((1,5-dimethyl-1H-pyrazol-3-yl)amino)-5-methylpyrimidin-4-yl)-1H-indol-7-yl)isoindolin-1-one]
0.01 to 0.1 µM	Cc1ccccc1-c1cccc2c1CN(c1cccc3c(-c4nc(Nc5cc(C)n(C)n5)ncc4C)c[nH]c13)C2=O [Example 440, 2-(3-(2-((1,5-dimethyl-1H-pyrazol-3-yl)amino)-5-methylpyrimidin-4-yl)-1H-indol-7-yl)-4-(o-tolyl)isoindolin-1-one]
0.01 to 0.1 µM	Cc1cnc(Nc2cc(C)n(C)n2)nc1-c1c[nH]c2c(N3Cc4c(cccc4-c4ccccc4O)C3=O)cccc12 [Example 441, 2-(3-(2-((1,5-dimethyl-1H-pyrazol-3-yl)amino)-5-methylpyrimidin-4-yl)-1H-indol-7-yl)-4-(2-hydroxyphenyl)isoindolin-1-one]
0.01 to 0.1 µM	Cc1cnc(Nc2cc(C)n(C)n2)nc1-c1c[nH]c2c(N3Cc4c(cccc4-c4ccc[nH]4)C3=O)cccc12 [Example 442, 2-(3-(2-((1,5-dimethyl-1H-pyrazol-3-yl)amino)-5-methylpyrimidin-4-yl)-1H-indol-7-yl)-4-(1H-pyrrol-2-yl)isoindolin-1-one]
0.01 to 0.1 µM	Cc1cnc(Nc2cc(C)n(C)n2)nc1-c1c[nH]c2c(N3Cc4c(cccc4-c4cccn4C(=O)OC(C)(C)C)C3=O)cccc12 [Example 443, tert-butyl 2-(2-(3-(2-((1,5-dimethyl-1H-pyrazol-3-yl)amino)-5-methylpyrimidin-4-yl)-1H-indol-7-yl)-1-oxoisoindolin-4-yl)-1H-pyrrole-1-carboxylate]
< 0.01 µM	Cc1cnc(Nc2cc(C)n(C)n2)nc1-c1c[nH]c2c(N3Cc4c(cccc4-c4c(C)noc4C)C3=O)cccc12 [Example 444, 2-(3-(2-((1,5-dimethyl-1H-pyrazol-3-yl)amino)-5-methylpyrimidin-4-yl)-1H-indol-7-yl)-4-(3,5-dimethylisoxazol-4-yl)isoindolin-1-one]
< 0.01 µM	COc1cc(-c2cccc3c2CN(c2cccc4c(-c5nc(Nc6cc(C)n(C)n6)ncc5C)c[nH]c24)C3=O)ccn1 [Example 445, 2-(3-(2-((1,5-dimethyl-1H-pyrazol-3-yl)amino)-5-methylpyrimidin-4-yl)-1H-indol-7-yl)-4-(2-methoxypyridin-4-yl)isoindolin-1-one]
< 0.01 µM	Cc1cnc(Nc2cc(C)n(C)n2)nc1-c1c[nH]c2c(N3Cc4c(cccc4-c4ccnc(O)c4)C3=O)cccc12 [Example 446, 2-(3-(2-((1,5-dimethyl-1H-pyrazol-3-yl)amino)-5-methylpyrimidin-4-yl)-1H-indol-7-yl)-4-(2-hydroxypyridin-4-yl)isoindolin-1-one]
< 0.01 µM	Cc1cnc(Nc2cc(C)n(C)n2)nc1-c1c[nH]c2c(N3Cc4c(cccc4-c4ccncc4N)C3=O)cccc12 [Example 447, 4-(3-aminopyridin-4-yl)-2-(3-(2-((1,5-dimethyl-1H-pyrazol-3-yl)amino)-5-methylpyrimidin-4-yl)-1H-indol-7-yl)isoindolin-1-one]
< 0.01 µM	Cc1cnc(Nc2cc(C)n(C)n2)nc1-c1c[nH]c2c(N3Cc4c(cccc4-c4ccc5ccncc5c4)C3=O)cccc12 [Example 448, 2-(3-(2-((1,5-dimethyl-1H-pyrazol-3-yl)amino)-5-methylpyrimidin-4-yl)-1H-indol-7-yl)-4-(isoquinolin-7-yl)isoindolin-1-one]
0.01 to 0.1 µM	Cc1cnc(Nc2cc(C)n(C)n2)nc1-c1c[nH]c2c(N3Cc4c(cccc4-c4ccc5c(cnn5C)c4)C3=O)cccc12 [Example 449, 2-(3-(2-((1,5-dimethyl-1H-pyrazol-3-yl)amino)-5-methylpyrimidin-4-yl)-1H-indol-7-yl)-4-(i-methyl-1H-indazol-5-yl)isoindolin-1-one]
0.01 to 0.1 µM	Cc1cnc(Nc2cc(C)n(C)n2)nc1-c1c[nH]c2c(N3Cc4c(cccc4-c4ccc5cnn(C)c5c4)C3=O)cccc12 [Example 450, 2-(3-(2-((1,5-dimethyl-1H-pyrazol-3-yl)amino)-5-methylpyrimidin-4-yl)-1H-indol-7-yl)-4-(i-methyl-1H-indazol-6-yl)isoindolin-1-one]
0.01 to 0.1 µM	Cc1ccc(-c2cccc3c2CN(c2cccc4c(-c5nc(Nc6cc(C)n(C)n6)ncc5C)c[nH]c24)C3=O)s1 [Example 451, 2-(3-(2-((1,5-dimethyl-1H-pyrazol-3-yl)amino)-5-methylpyrimidin-4-yl)-1H-indol-7-yl)-4-(5-methylthiophen-2-yl)isoindolin-1-one]
0.1 to 1 µM	Cc1cnc(Nc2cc(C)n(C)n2)nc1-c1c[nH]c2c(N3Cc4c(cccc4-c4ccc5c(c4)CCC5)C3=O)cccc12 [Example 452, 4-(2,3-dihydro-1H-inden-5-yl)-2-(3-(2-((1,5-dimethyl-1H-pyrazol-3-yl)amino)-5-methylpyrimidin-4-yl)-1H-indol-7-yl)isoindolin-1-one]
0.01 to 0.1 µM	Cc1cscc1-c1cccc2c1CN(c1cccc3c(-c4nc(Nc5cc(C)n(C)n5)ncc4C)c[nH]c13)C2=O [Example 453, 2-(3-(2-((1,5-dimethyl-1H-pyrazol-3-yl)amino)-5-methylpyrimidin-4-yl)-1H-indol-7-yl)-4-(4-methylthiophen-3-yl)isoindolin-1-one]
< 0.01 µM	Cc1cc(-c2ccc(F)c3c2CN(c2cccc4c(-c5nc(Nc6cc(C)n(C)n6)ncc5C)c[nH]c24)C3=O)ccn1 [Example 454, 2-(3-(2-((1,5-dimethyl-1H-pyrazol-3-yl)amino)-5-methylpyrimidin-4-yl)-1H-indol-7-yl)-7-fluoro-4-(2-methylpyridin-4-yl)isoindolin-1-one]
